Structures are written as SMILES. Marks after values point to notes of the source that are not given here.

The term chromatographic logP denotes a lipophilicity value derived from retention on a column. A low value points to a more hydrophilic compound.

The first data set can be described thus: Measurement of LogP values by HPLC on reversed phase columns (EEC directive 79/831 Annex V.A8). The class given is physicochemical.
Conditions: not given
On the procedure:
The abbreviations and numerations of the substituent positions used in the context of the present invention and in the following Tables are explained in detail in the section Examples hereinafter. Also, the LogP values indicated in the following Tables are explained in detail in the section Examples hereinafter. In case LogP values for different diastereoisomers of a specific compound are […], said LogP values are […] by a “+”. […] Measurement of LogP values was performed according to EEC directive 79/831 Annex V.A8 by HPLC (High Performance Liquid Chromatography) on reversed phase columns with the following methods: […] Lambda-max-values were determined using UV-spectra from 200 nm to 400 nm and the peak values of the chromatographic signals
For `C[C@@H]1CCCC[C@H]1NC(=O)c1snc(N)c1Br` (relative stereo) [I-838], the LogP is 2.34[a].

In the case of `C[C@@H]1CCCC[C@H]1NC(=O)c1snc(N)c1Br` (relative stereo) [I-839], the LogP is 2.49[a].

Consider `C[C@H]1[C@H](CNC(=O)c2snc(N)c2Cl)CCC[C@H]1C` (relative stereo) [I-1291], for which the LogP is 3.10[a].

In the case of `C[C@H]1CCCC[C@H]1NC(=O)c1snc(N)c1F` (relative stereo) [I-1356], the LogP was 2.11[a].

Consider `C[C@@H]1CCCC[C@H]1NC(=O)c1snc(N)c1F` (relative stereo) [I-1357], for which the LogP is 2.21[a].

Consider `C[C@H]1CCCC[C@H]1CNC(=O)c1snc(N)c1I` (relative stereo) [I-1540], for which the LogP was 2.73[a].

For `C[C@H]1CCCC[C@H]1CNC(=O)c1snc(N)c1I` (relative stereo) [I-1541], the LogP is 2.67[a].

Regarding `COc1ccc(CNc2nsc(C(=O)N[C@@H]3CCCC[C@@H]3C)c2Cl)cc1` (relative stereo) [I-1550], the LogP is 4.18[a].

Consider `COc1ccc(CNc2nsc(C(=O)N[C@@H]3CCCC[C@H]3C)c2Cl)cc1` (relative stereo) [I-1551], for which the LogP was 4.39[a].

Turning to `Nc1nsc(C(=O)N[C@@H]2CCCC[C@H]2Cl)c1I` (relative stereo) [I-1565], the LogP was 2.12[a].

Take `Cc1c(N)nsc1C(=O)NCC1CCCC1O` (single isomer, unassigned) [I-706]: the LogP is 0.79[a].

Consider `Cc1c(N)nsc1C(=O)NCC1CCCC1O` (single isomer, unassigned) [I-707], for which the LogP is 0.82[a].

Consider `Nc1nsc(C(=O)NCC2CCCC2O)c1Cl` (single isomer, unassigned) [I-772], for which the LogP was 1.09[a].

As to `Nc1nsc(C(=O)NCC2CCCC2O)c1Cl` (single isomer, unassigned) [I-773], the LogP was 0.88[a].

Turning to `C[C@H](NC(=O)c1snc(Cl)c1Cl)C1CCCCC1` [E-II-002], the “LogP [a]” value is 4.56^[a].

On to `O=C(NCc1ccccc1Cl)c1snc(Cl)c1Cl` [E-II-003], for which the “LogP [a]” value was 3.52^[a].

With `O=C(NCC1CCOCC1)c1snc(Cl)c1Cl` [E-II-004], the “LogP [a]” value is 2.05^[a].

As for `O=C(NCC1CCCOC1)c1snc(Cl)c1Cl` (stereo not shown) [E-II-005], the “LogP [a]” value is 2.18^[a].

For `O=C(NCC1CCCO1)c1snc(Cl)c1Cl` (stereo not shown) [E-II-006], the “LogP [a]” value is 2.20^[a].

Regarding `O=C(NCC1CCOC1)c1snc(Cl)c1Cl` (stereo not shown) [E-II-007], the “LogP [a]” value is 1.84^[a].

For the molecule `O=C(NCc1ccccc1F)c1snc(Cl)c1Cl` [E-II-008], the “LogP [a]” value was 3.23^[a].

As to `O=C(NCC1CCCCO1)c1snc(Cl)c1Cl` (stereo not shown) [E-II-010], the “LogP [a]” value was 2.87^[a].

In the case of `O=C(NCc1cc(F)ccc1F)c1snc(Cl)c1Cl` [E-II-011], the “LogP [a]” value is 3.17^[a].

In the case of `O=C(NC1CCCC2CCCCC21)c1snc(Cl)c1Cl` (stereo not shown) [E-II-012], the “LogP [a]” value is 5.34^[a].

`CC(C)(NC(=O)c1snc(Cl)c1Cl)C1CCCCC1` [E-II-013]: the “LogP [a]” value is 5.39^[a].

For `O=C(c1snc(Cl)c1Cl)N(Cc1ccc(F)cc1F)C1CC1` [E-II-014], the “LogP [a]” value was 4.01^[a].

`Cc1ccc(C(C)(C)C)c(CN(C(=O)c2snc(Cl)c2Cl)C2CC2)c1` [E-II-015]: the “LogP [a]” value was 5.65^[a].

Regarding `O=C(NCC1CCC(C(=O)NC2CC2)CC1)c1snc(Cl)c1Cl` (stereo not shown) [E-II-016], the “LogP [a]” value was 2.21^[a].

In the case of `CC1(C)C2CCC1(C)C(NC(=O)c1snc(Cl)c1Cl)C2` (stereo not shown) [E-II-017], the “LogP [a]” value amounted to 5.02 and the “LogP [b]” value was found to be 4.96.

As to `CN1C2CCC1CC(NC(=O)c1snc(Cl)c1Cl)C2` (stereo not shown) [E-II-018], the “LogP [a]” value was 0.66^[a].

`O=C(NC1CCc2ccccc21)c1snc(Cl)c1Cl` (stereo not shown) [E-II-020]: the “LogP [a]” value came out at 3.70 and the “LogP [b]” value was 3.63.

Take `O=C(NC1CCCc2ccccc21)c1snc(Cl)c1Cl` (stereo not shown) [E-II-021]: the “LogP [a]” value is on record as 4.07 and the “LogP [b]” value was determined as 3.98.

Regarding `CC1(C)C2CCC1(C)C(NC(=O)c1snc(Cl)c1Cl)C2` (stereo not shown) [E-II-022], the “LogP [a]” value was 5.07 and the “LogP [b]” value was 4.94.

In the case of `CC1(C)C2CCC(CNC(=O)c3snc(Cl)c3Cl)C1C2` (stereo not shown) [E-II-023], the “LogP [a]” value is listed as 5.13 and the “LogP [b]” value turned out to be 5.02.

As for `CC1CCC(C(C)C)C(NC(=O)c2snc(Cl)c2Cl)C1` (stereo not shown) [E-II-024], the “LogP [a]” value is recorded as 5.72 and the “LogP [b]” value amounted to 5.64.

Take `O=C(NC1CCCC2CCCCC21)c1snc(Cl)c1Cl` (stereo not shown) [E-II-025]: the “LogP [a]” value is 5.27^[a].

`O=C(NC1CCCC2CCCCC21)c1snc(Cl)c1Cl` (stereo not shown) [E-II-026]: the “LogP [a]” value is 5.43^[a].

As to `CON(C(=O)c1snc(Cl)c1Cl)C(C)C1CCCCC1` (stereo not shown) [E-II-028], the “LogP [a]” value is given as 5.27 and the “LogP [b]” value turned out to be 5.09.

Regarding `O=C(NC(CCc1ccccc1)C1CCC1)c1snc(Cl)c1Cl` (stereo not shown) [E-II-029], the “LogP [a]” value was found to be 5.04 and the “LogP [b]” value came out at 4.91.

`COC(=O)CC(NC(=O)c1snc(Cl)c1Cl)C1CCCCC1` (stereo not shown) [E-II-030]: the “LogP [a]” value is 4.03 and the “LogP [b]” value came to 3.95.

Take `O=C(NC(c1ccccc1)C1CCCCC1)c1snc(Cl)c1Cl` (stereo not shown) [E-II-031]: the “LogP [a]” value came to 5.19 and the “LogP [b]” value is reported as 5.05.

As for `CC(NC(=O)c1snc(Cl)c1Cl)C1CCCO1` (stereo not shown) [E-II-032], the “LogP [a]” value stood at 2.72 and the “LogP [b]” value turned out to be 2.69.

With `O=C(NCCC1CCCCC1)c1snc(Cl)c1Cl` [E-II-033], the “LogP [a]” value was 4.40^[a].

Turning to `O=C(NC(Cc1ccccc1)C1CC=CCC1)c1snc(Cl)c1Cl` (stereo not shown) [E-II-034], the “LogP [a]” value is reported as 4.87 and the “LogP [b]” value is recorded as 4.75.

As to `COC(=O)c1snc(N)c1Cl` [E-VII-001], the “LogP [a]” value is 1.42^[a].

With `COc1ccc(CNc2nsc(C(=O)OC(C)(C)C)c2Cl)cc1` [E-VII-002], the “LogP [a]” value is 4.74^[a].

In the case of `CC(C)(C)OC(=O)c1snc(N)c1Cl` [E-VII-003], the “LogP [a]” value is 2.66^[a].

Regarding `COc1ccc(CNc2nsc(C(=O)OC(C)C)c2Cl)cc1` [E-VII-004], the “LogP [a]” value was 4.36^[a].

Consider `CC(C)OC(=O)c1snc(N)c1Cl` [E-VII-005], for which the “LogP [a]” value is 2.17 and the “LogP [b]” value is 2.16.

On to `COC(=O)c1snc(N=C(c2ccccc2)c2ccccc2)c1Cl` [E-VII-006], for which the “LogP [a]” value is 4.40^[a].

As to `CCOC(=O)c1snc(NC(=O)c2ccc(F)cc2)c1Cl` [E-VII-010], the “LogP [a]” value is 2.62^[a].

For `CC(C)OC(=O)c1snc(N(C(=O)OC(C)(C)C)C(=O)OC(C)(C)C)c1Cl` [E-VII-011], the “LogP [a]” value is 5.00^[a].

As for `CCOC(=O)c1snc(N(Cc2ccccc2)Cc2ccccc2)c1Cl` [E-VII-013], the “LogP [a]” value was 5.73^[a].

For the molecule `CCOC(=O)c1snc(NC(=O)C(C)(C)C)c1Cl` [E-VII-018], the “LogP [a]” value was 2.48^[a].

Turning to `CCOC(=O)c1snc(NC(=O)c2ccccc2)c1Cl` [E-VII-020], the “LogP [a]” value was 2.45^[a].

Take `CCOC(=O)c1snc(N(C(C)=O)C(C)=O)c1Cl` [E-VII-022]: the “LogP [a]” value was 2.47^[a].

In the case of `CCOC(=O)c1snc(N(Cc2ccccc2)Cc2ccccc2)c1-c1ccc(F)cc1` [E-VII-031], the “LogP [a]” value is 6.11^[a].

As to `CCOC(=O)c1snc(N)c1Br` [E-VII-060], the “LogP [a]” value was 1.93^[a].

For `COc1ccc(CNc2nsc(C(=O)OC(C)C)c2NCc2ccc(OC)cc2)cc1` [E-VII-063], the “LogP [a]” value is on record as 4.56 and the “LogP [b]” value is 4.51.

Turning to `CCOC(=O)c1snc(NCc2ccc(OC)cc2)c1Cl` [E-VII-069], the “LogP [a]” value is 3.87^[a].

As to `COc1ccc(CNc2cc(C(=O)OC(C)C)sn2)cc1` [E-VII-070], the “LogP [a]” value is 3.63^[a].

In the case of `CC(C)(C)OC(=O)Nc1nsc(C(=O)O)c1Cl` [E-VIII-001], the “LogP [a]” value was 1.35^[a].

For the molecule `COc1ccc(CNc2nsc(C(=O)O)c2Cl)cc1` [E-VIII-002], the “LogP [a]” value is 2.21^[a].

Turning to `O=C(O)c1snc(N(Cc2ccccc2)Cc2ccccc2)c1Br` [E-VIII-004], the “LogP [a]” value was 3.83^[a].

Consider `O=C(O)c1snc(N(Cc2ccccc2)Cc2ccccc2)c1Cl` [E-VIII-005], for which the “LogP [a]” value was 3.75^[a].

The data set is the same for the next values; noted with them: HPLC LC-UV, acidic range, 0.1% formic acid in water and acetonitrile as eluent.
In turn, `O=C(NCC1CCCCC1)c1snc(Cl)c1Cl` [E-II-001, 3,4-dichloro-N-(cyclohexylmethyl)isothiazole-5-carboxamide] returned a chromatographic logP of 4.11.

Molecule `CCOC(=O)c1snc(N(Cc2ccccc2)Cc2ccccc2)c1Br` [E-VII-008, ethyl 4-bromo-3-(dibenzylamino)-1,2-thiazole-5-carboxylate] gave a chromatographic logP of 5.8.

On to `CCOC(=O)c1cc(N(Cc2ccccc2)Cc2ccccc2)ns1` [E-VII-012, ethyl 3-(dibenzylamino)-1,2-thiazole-5-carboxylate], for which the chromatographic logP is 5.13.

Consider `CCOC(=O)c1snc(N(Cc2ccccc2)Cc2ccccc2)c1C(F)F` [E-VII-023, ethyl 3-(dibenzylamino)-4-(difluoromethyl)-1,2-thiazole-5-carboxylate], for which the chromatographic logP worked out at 5.68.

In turn, `CCOC(=O)c1snc(N(Cc2ccccc2)Cc2ccccc2)c1C1CC1` [E-VII-024, ethyl 4-cyclopropyl-3-(dibenzylamino)isothiazole-5-carboxylate] gave a chromatographic logP of 5.91.

With `O=C(O)c1cc(N(Cc2ccccc2)Cc2ccccc2)ns1` [E-VIII-003, 3-(dibenzylamino)-1,2-thiazole-5-carboxylic acid], the chromatographic logP was found to be 3.35.
